{
  "source": "patent US5578445A",
  "about": "“In vitro method of evaluating the effects of a substance” (priority 1991, dated 1996)",
  "biological_target": "T1, estrogen receptor (Homo sapiens, UniProt P03372)",
  "T1 sequence (P03372 1-595)": "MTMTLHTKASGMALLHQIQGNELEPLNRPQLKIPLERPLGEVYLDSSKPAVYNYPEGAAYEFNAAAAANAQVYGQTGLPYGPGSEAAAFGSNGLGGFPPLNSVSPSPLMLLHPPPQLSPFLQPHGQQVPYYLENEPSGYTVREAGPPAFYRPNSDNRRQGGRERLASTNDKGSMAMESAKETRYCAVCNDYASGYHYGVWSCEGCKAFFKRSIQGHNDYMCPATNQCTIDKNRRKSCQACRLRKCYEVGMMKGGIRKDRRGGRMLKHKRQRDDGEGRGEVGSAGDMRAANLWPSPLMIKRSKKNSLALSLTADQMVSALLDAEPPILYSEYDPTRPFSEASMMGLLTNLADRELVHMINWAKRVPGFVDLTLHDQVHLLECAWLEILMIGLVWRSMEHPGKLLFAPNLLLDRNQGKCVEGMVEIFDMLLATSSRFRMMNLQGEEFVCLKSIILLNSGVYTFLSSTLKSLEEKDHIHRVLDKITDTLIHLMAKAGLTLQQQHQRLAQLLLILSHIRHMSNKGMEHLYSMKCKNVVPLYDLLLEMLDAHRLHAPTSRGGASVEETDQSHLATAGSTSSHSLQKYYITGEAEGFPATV",
  "assay": "Cathepsin D secretion into medium, MCF7 in petridishes, Cath D RIA",
  "experimental": "The experiment was conducted using the human breast cancer cell line MCF7 (ATCC HTB 22). The selected cellular response to be analyzed was the amount of expressed cathepsin D (Cath D), the expression of which is regulated by the estrogen receptor. […] The amount of Cath D secreted into the medium was determined with the aid of a commercial RIA (ELSA-CATH-D from CIS Bioindustries, Gif-sur-Yvette, France). The performance of the method is as follows:\nA sample of the cell line MCF7 (4×10^5 cells) was distributed into plastic petridishes (suitable for the culturing of mammalian cells). The cells were suspended in the first medium (C).\nThe petridishes were incubated at 37° C. and 5% CO2 in a temperature and humidity controlled chamber.\nThe first medium (C) was replaced by the second medium, which consisted of fresh first medium (C). The following hormone additions were made:\nThe petridishes were incubated in the temperature and humidity controlled chamber under the same conditions as above.\n72 hours after the hormone addition visual inspection of the number of cells and their morphology was performed. Medium from each petridish was transferred to Eppendorf tubes and centrifuged 7 minutes at 1000rpm (Eppendorf centrifuge). The amount of Cath D in the medium samples was analyzed with the aid of the commercial Cath D RIA (ELSA-CATH D)",
  "data": [
    {"smiles": "O=C(c1ccc(OCCN2CCCC2)cc1)c1c(-c2ccc(O)cc2)sc2cc(O)ccc12", "note": "[LY 117018]", "values": [
      {"measurement": "fold induction at 0.1 µM", "setting": "MCF7, 72 h, read-out: relative amount of Cath D (no hormone added = 1)", "result": 0.88},
      {"measurement": "function on Cath D expression", "setting": "MCF7, 10^-7 M LY 117018, both in the absence and in the presence of 10^-8 M E2", "result": "acts as an estrogen antagonist"}
    ]}
  ]
}
